Active and inactive are the calls of the source. No rule for the calls is given here.

One test has as its target Toxin B (TcdB) glycohydrolase, Clostridioides difficile 630. The test can be described thus: TcdB glycohydrolase inhibitors, dose response, biochemical, cherry-pick, plate reader (AID 720512). The settings on record: recombinant TcdB glycohydrolase activity.
Broadly, the AC50 is the midpoint of the concentration-response curve, whichever way the signal moves. Turning to `ON=C1c2ccccc2-c2ccc(O)cc21`, the AC50 was 22 µM.

Regarding `Cc1ccc(-n2c(SCC(=O)O)nc3c(sc(=S)n3-c3ccc(C)c(C)c3)c2=O)cc1`, the AC50 is > 39 µM (inactive).

Turning to `Cc1cc(N/N=C/c2ccc(O)cc2)c2cccc(C)c2n1`, the AC50 was > 39 µM (inactive).

As for `Cc1cc(C)c2nc(C)cc(N/N=C/c3ccc(O)cc3)c2c1`, the AC50 is > 39 µM (inactive).

Turning to `CCNC(=O)C[C@H]1CC[C@@H]2[C@@H](COc3ccc(NC(=O)c4ccc5c(c4)OCO5)cc3C(=O)N2C)O1`, the AC50 is > 39 µM (inactive).

As for `Oc1ccc2ccc3[nH]cnc3c2c1`, the AC50 is > 39 µM (inactive).

Regarding `O=C1Nc2ccc(Br)cc2C1Cc1ccccc1F` (stereo unspecified), the AC50 is > 39 µM (inactive).

Still in this test, the particulars now being: recombinant TcdB glycohydrolase activity, at 10 µM (top of the series).
As for `O=c1c(OC2OC(CO)C(O)C(O)C2O)c(-c2ccc(O)c(O)c2)oc2cc(O)cc(O)c12` (stereo unspecified), the “activity change, negative = inhibition” value is “inactive”.

The test is the same for the next values; noted with them: recombinant TcdB glycohydrolase activity, at 19.5 µM (top of the series).
Consider `COc1ccc(/C=C/c2onc(C)c2S(=O)(=O)N2CCC(C(=O)N3CCC(C)CC3)CC2)cc1`, for which the “activity change, negative = inhibition” value is “inactive”.

Turning to `O=C(c1ccccc1F)N1CCN(c2ccc([N+](=O)[O-])c3cccnc23)CC1`, the “activity change, negative = inhibition” value was “inactive”.

`CCCCn1c(N)c(N(CCOC)C(=O)CSc2nnc(-c3ccco3)n2CC)c(=O)[nH]c1=O`: the “activity change, negative = inhibition” value was “inactive”.

On to `CCCN1CCN(C(=O)C2CCN(S(=O)(=O)c3c(C)noc3/C=C/c3ccc(C)cc3)CC2)CC1`, for which the “activity change, negative = inhibition” value was “inactive”.

On to `O=C(Nc1ccc(O)cc1)C1CCCN1S(=O)(=O)c1ccc(F)cc1` (stereo unspecified), for which the “activity change, negative = inhibition” value was “inactive”.

For `CCCS(=O)(=O)NC(=O)C1(C)CCN(C(=O)c2ccco2)C1` (stereo unspecified), the “activity change, negative = inhibition” value is “inactive”.

`CC(C)NC(=O)N1CC[C@@H]2[C@H]1c1cc(-c3ccc(F)cc3)ccc1N(C)[C@H]2CO`: the “activity change, negative = inhibition” value was “inactive”.

As for `Cc1cc(C)c2sc(NNC(=O)C3COc4ccccc4O3)nc2c1` (stereo unspecified), the “activity change, negative = inhibition” value was “inactive”.

Consider `O=C(CCNC(=O)c1ccccc1Cl)N/N=C\c1ccc(O)cc1`, for which the “activity change, negative = inhibition” value is “inactive”.

As to `O=C(NCc1ccncc1)[C@@H]1CCCN1C(=O)[C@@H]1CCCN1`, the “activity change, negative = inhibition” value is “inactive”.

`CNC(=O)N(O)C1N(/N=C/c2ccc(SC)cc2)C(=S)SC1(C)C` (stereo unspecified): the “activity change, negative = inhibition” value is “inactive”.

For `O=C(NCCc1ccc(Cl)cc1)C1CCN(S(=O)(=O)c2ccc(Br)s2)CC1`, the “activity change, negative = inhibition” value is “inactive”.

For the compound `CCS(=O)(=O)c1ccc2oc(Nc3ccc(C(C)(C)C)cc3)nc2c1`, the “activity change, negative = inhibition” value was “inactive”.

Consider `Cc1cccc(-n2nnc(C(=O)NCc3ccccc3Cl)c2N)c1`, for which the “activity change, negative = inhibition” value was “inactive”.

On to `COc1cc(NC(=O)CCc2nnc3ccc(N4CCC(C)CC4)nn23)cc(OC)c1`, for which the “activity change, negative = inhibition” value is “inactive”.

As for `CC(=O)Nc1ccc(N(C(=O)c2ccco2)C(C(=O)NC2CCCC2)c2cccs2)cc1` (stereo unspecified), the “activity change, negative = inhibition” value was “inactive”.

As to `COc1cc(/C=C(\C#N)C(=O)Nc2ccc3c(c2)OCCO3)ccc1O`, the “activity change, negative = inhibition” value is “inactive”.

With `Clc1ccc(/C=C/c2ncc[nH]2)c(Cl)c1`, the “activity change, negative = inhibition” value is “inactive”.

Turning to `COc1cccc2cc(/C(C)=N/NC(=O)c3ccco3)oc12`, the “activity change, negative = inhibition” value is “inactive”.

`C=C1CCN(Cc2ccccc2)S(=O)(=O)c2ccccc21`: the “activity change, negative = inhibition” value was “inactive”.

Regarding `CC(=O)Nc1cc(-c2ccc(F)cc2)[nH]n1`, the “activity change, negative = inhibition” value is “inactive”.

Regarding `Oc1ccc(CCNc2ncnc3ccc(Cl)cc23)cc1`, the “activity change, negative = inhibition” value is “inactive”.

In the case of `COCCNc1cc(N)c([N+](=O)[O-])cc1[N+](=O)[O-]`, the “activity change, negative = inhibition” value is “inactive”.

For the compound `COc1ccccc1OCC(=O)Nc1ccc(-c2nnc(-c3ccco3)o2)cc1`, the “activity change, negative = inhibition” value was “inactive”.

On to `O=C(Nc1ccc(N2CCOCC2)c(Cl)c1)c1ccc2c(c1)OCCO2`, for which the “activity change, negative = inhibition” value is “inactive”.

Consider `C=CCn1c(SCC(=O)N2CC(=O)Nc3ccccc32)nc2scc(-c3ccccc3)c2c1=O`, for which the “activity change, negative = inhibition” value was “inactive”.

As for `CCN1CC(CNCc2cn(-c3ccc(OC)cc3)nc2-c2ccccc2Cl)CC1=O` (stereo unspecified), the “activity change, negative = inhibition” value is “inactive”.

Take `O=C(NC(=S)Nc1ccc(O)cc1)c1cncc(Br)c1`: the “activity change, negative = inhibition” value was “inactive”.

Regarding `CN1C=CC(=CC=C2C=CC(=O)C=C2)C=C1`, the “activity change, negative = inhibition” value is “inactive”.

Take `O=C1CSC(=Nc2ccc(O)cc2)N1`: the “activity change, negative = inhibition” value was “inactive”.

Turning to `O=C(NCc1ccccc1)C1Cc2c(-c3cccc(F)c3)ccnc2O1` (stereo unspecified), the “activity change, negative = inhibition” value is “inactive”.

With `Cn1ncc(Br)c1C(=O)N/N=C/c1cccc(OC2CSC2)c1`, the “activity change, negative = inhibition” value is “inactive”.

Take `Cc1cccc(/C=C/c2onc(C)c2S(=O)(=O)N2CCC(C(=O)NC(C)C)CC2)c1`: the “activity change, negative = inhibition” value is “inactive”.

With `CCCn1c(N)c(C(=O)COC(=O)c2cccc(S(=O)(=O)N3CCOCC3)c2)c(=O)[nH]c1=O`, the “activity change, negative = inhibition” value is “inactive”.

Take `Cc1cc(C(=O)CSc2nnnn2-c2ccccc2)c(C)n1-c1ccc2c(c1)OCO2`: the “activity change, negative = inhibition” value is “inactive”.

In the case of `Cc1ccc(-c2cc(C(=O)NNC(=O)c3csc(N4CCOCC4)n3)c3ccccc3n2)cc1`, the “activity change, negative = inhibition” value was “inactive”.

`CCOc1cc(NC(=S)NCC2CCCO2)c(OCC)cc1NC(=O)c1ccc(F)cc1` (stereo unspecified): the “activity change, negative = inhibition” value is “inactive”.

In the case of `COc1ccccc1N1CC(O)=C(c2nc3ccccc3s2)C1=N`, the “activity change, negative = inhibition” value is “inactive”.

With `Cc1cc(N/N=C/c2ccncc2)nc2ccccc12`, the “activity change, negative = inhibition” value was “inactive”.

As to `Oc1ccc(-c2nccs2)cc1`, the “activity change, negative = inhibition” value was “inactive”.

On to `CC(=O)C1=CCC(c2ccccc2)N(S(=O)(=O)c2ccc(C)cc2)C1` (stereo unspecified), for which the “activity change, negative = inhibition” value is “inactive”.

Turning to `Oc1ccc(-c2nc3cnccn3c2Nc2ccc3c(c2)OCCO3)cc1`, the “activity change, negative = inhibition” value was “inactive”.

Turning to `O=C(NCc1cc(C(F)(F)F)cc(C(F)(F)F)c1)C1CC(c2c(Cl)cccc2Cl)=NO1` (stereo unspecified), the “activity change, negative = inhibition” value is “inactive”.

With `COc1cccc(CC(=O)OCC(=O)Nc2c(C)nn(-c3ccccc3)c2C)c1`, the “activity change, negative = inhibition” value was “inactive”.

Regarding `O=[N+]([O-])c1ccc(/C=C/c2ccc3ccccc3n2)cc1`, the “activity change, negative = inhibition” value was “inactive”.

On to `COCCCNC(=O)C1CCN(S(=O)(=O)c2c(C)noc2/C=C\c2ccc(OC)cc2)CC1`, for which the “activity change, negative = inhibition” value is “inactive”.

Take `S=c1[nH]nc(-c2ccccn2)n1/N=C/c1ccc(Cl)cc1`: the “activity change, negative = inhibition” value was “inactive”.

Consider `CC(C)CNC(=O)C(=O)NCC1CCCN1S(=O)(=O)c1cccs1` (stereo unspecified), for which the “activity change, negative = inhibition” value is “inactive”.

For `CCN1/C(=C2\OC(=S)N(C)C2=O)C=Cc2ccccc21`, the “activity change, negative = inhibition” value is “inactive”.

Turning to `COc1ccc(-c2nc3ccc([N+](=O)[O-])cc3[nH]2)cc1`, the “activity change, negative = inhibition” value was “inactive”.

With `CC(Sc1nc2ccccc2n1C)C(=O)Nc1ccc(N2CCOCC2)cc1` (stereo unspecified), the “activity change, negative = inhibition” value is “inactive”.

For the compound `Cc1nc(-c2ccccn2)nc(SCC(=O)c2ccc(F)cc2)c1Cl`, the “activity change, negative = inhibition” value was “inactive”.

On to `CC1CC(=O)N(c2ccc(NCCc3ccc(O)cc3)c([N+](=O)[O-])c2)C1=O` (stereo unspecified), for which the “activity change, negative = inhibition” value is “inactive”.

On to `CCCc1cc(=O)oc2c3c(cc(OCC(=O)NCCCn4ccnc4)c12)OC(C)(C)CC3`, for which the “activity change, negative = inhibition” value is “inactive”.

Consider `O=C(CSc1ccccc1)Nc1cc(S(=O)(=O)N2CCOCC2)ccc1N1CCOCC1`, for which the “activity change, negative = inhibition” value is “inactive”.

In the case of `Cc1ccc(SCCC(=O)N/N=C/c2cccnc2)cc1`, the “activity change, negative = inhibition” value is “inactive”.

In the case of `COc1ccc(C(=O)OCC(=O)Nc2ccc3[nH]c(=O)[nH]c3c2)c(OC)c1OC`, the “activity change, negative = inhibition” value was “inactive”.

With `N#Cc1ccc(C(=O)N/N=C/c2cn(CC(=O)O)c3ccccc23)c(F)c1`, the “activity change, negative = inhibition” value was “inactive”.

As for `Cc1cc(C(=O)N2CCN(Cc3ccccc3)CC2)ccc1[N+](=O)[O-]`, the “activity change, negative = inhibition” value is “inactive”.

With `COc1ccc(C2=NS(=O)(=O)N(C)C(C(=O)NCc3ccc(F)cc3)=C2)cc1OC`, the “activity change, negative = inhibition” value was “inactive”.

`CCOC(=O)c1cccc(NC(=O)CCNS(=O)(=O)c2cccc3nonc23)c1`: the “activity change, negative = inhibition” value is “inactive”.

Regarding `CCN(CCN(C)C)C(=O)C1CCN(S(=O)(=O)c2c(C)noc2/C=C/c2ccccc2F)CC1`, the “activity change, negative = inhibition” value is “inactive”.

As for `COc1ccccc1C1NC(=O)NC(C)=C1C(=O)OC1CCCCC1` (stereo unspecified), the “activity change, negative = inhibition” value is “inactive”.

Regarding `CCNC(=O)C[C@H]1CC[C@@H]2[C@H](COc3ccc(NC(C)=O)cc3C(=O)N2C)O1`, the “activity change, negative = inhibition” value is “inactive”.

On to `CC(C(=O)OCC(=O)c1c(N)n(C)c(=O)n(C)c1=O)N1C(=O)c2ccccc2C1=O` (stereo unspecified), for which the “activity change, negative = inhibition” value was “inactive”.

Regarding `S=c1nc(-c2ccc(Cl)cc2)[nH][nH]1`, the “activity change, negative = inhibition” value was “inactive”.

Take `Cc1nc(SCC(=O)N2CCNC2=O)c(C#N)c(C)c1C`: the “activity change, negative = inhibition” value is “inactive”.

Consider `O=C(COc1ncnc2ccccc12)NCCc1ccc(F)cc1`, for which the “activity change, negative = inhibition” value is “inactive”.

Consider `COc1ccc(C2=NS(=O)(=O)N(C)C(C(=O)N(C)Cc3ccccc3)=C2)cc1OC`, for which the “activity change, negative = inhibition” value was “inactive”.

Turning to `CCOC(=O)C1=C(C)Nc2nnnn2C1c1ccc(OC)c(Br)c1` (stereo unspecified), the “activity change, negative = inhibition” value is “inactive”.

For `COc1cc(O)ccc1C(=O)CCc1ccc(O)cc1`, the “activity change, negative = inhibition” value was “inactive”.

Take `COC(=O)c1ccc(OC(=O)c2ccc(OC)cc2)c(OC)c1`: the “activity change, negative = inhibition” value is “inactive”.

Regarding `O=C1/C(=C/c2cccnc2)SC(=NCc2ccccc2)N1Cc1ccccc1`, the “activity change, negative = inhibition” value is “inactive”.

The values are drawn from PubChem BioAssay AID720512 (Broad Institute, 2013).
